Tests used:
[1] = system: Supercoiled plasmid pUC57 DNA; experiment: Cleavage of pUC57 DNA, agarose gel electrophoresis; type: biochemical; settings: pUC57, 100, 200 and 300 µM
Protocol: DNA supercoiling plays a key role in gene expression and genome organization. The agarose gel electrophoresis assay was used to check whether the tested complexes 3a–3c are able to cleave DNA. Supercoiled plasmid pUC57 DNA (4634 bp); Thermo Scientific, ABO Sp. z o.o., Gdansk, Poland), was incubated with tested compounds (100, 200 and 300 µM). Next, loading buffer (1 μL) containing […] bromophenol blue, 0.25% xylene cyanol and 30% glycerol was added to allow the samples to be loaded into 1% w/v agarose gel. Electrophoresis was performed at 75 V in Tris-acetate- EDTA (TAE) buffer. The gel was stained using Midori green advance DNA stain (Genetics, ABO Sp. z o.o., Gdansk, Poland), and visualised under UV light with the BioRad Gel Doc 2000 system using LABWORK software (Hercules, California, USA). All experiments were carried out in triplicate under the same conditions.

S. aureus ATCC 29213 [2] = experiment: Synergy with oxacillin and vancomycin, partial checkerboard broth microdilution; type: cell-based, Staphylococcus aureus; settings: S. aureus ATCC 29213; for FIC (Oxa) / FIC (Van): MIC antibiotic in combination/MIC antibiotic alone; for MIC Oxa in Combination: oxacillin with the complex at ½ MIC (NH4PF6 250 µg/mL); for MIC Van in Combination: vancomycin with the complex at ½ MIC (NH4PF6 250 µg/mL)
[3] = system: S. epidermidis ATCC 12228; experiment: as above; type: cell-based, Staphylococcus epidermidis; settings: S. epidermidis ATCC 12228; for FIC (Oxa) / FIC (Van): MIC antibiotic in combination/MIC antibiotic alone; for MIC Oxa in Combination: oxacillin with the complex at ½ MIC (NH4PF6 250 µg/mL); for MIC Van in Combination: vancomycin with the complex at ½ MIC (NH4PF6 250 µg/mL)
[4] = system: S. epidermidis ATCC 12228; experiment: Time-kill test; type: cell-based, Staphylococcus epidermidis; settings: 1 × MIC
Protocol: (§1) The time-kill experiments were performed as described previously. Briefly, inocula were prepared in TSB medium (TSB; […] BTL Sp. z o.o., Łódź, Poland). All samples were incubated at 35 °C and 80 rpm for varied time intervals (2, 4, 6, 12, 18, 24, 48h). The percentage of dead cells was calculated according to the growth control by determining the number of living cells (CFU/mL) of each tube using the agar plate count method. Samples were immediately serially diluted ten-fold in 0.01 M phosphate buffered saline (PBS, Bimed Lublin S.A., Lublin, Poland) at pH 7.0 and 10 μL aliquots were spot-inoculated in duplicate onto MHA plates. Agar plates were incubated at 37 °C overnight before determining the viable count. Two independent experiments were carried out.

[5] = system: Proteus vulgaris ATCC 8427; experiment: MIC and MBC/MFC by broth microdilution; type: cell-based; settings: P. vulgaris ATCC 8427
Protocol: (§2) Reference strains of bacteria and fungi: Staphylococcus aureus ATCC 29213, Staphylococcus epidermidis ATCC 12228, Enterococcus faecalis ATCC 29212, Pseudomonas aeruginosa ATCC 25619, Proteus vulgaris ATCC 8427, and Candida albicans ATCC 10231 (Manassas, VA, USA) were used to screen the antimicrobial activity of the arene-ruthenium(II) complexes 3a-3d, NH4PF6 and selected antibiotics. The microorganisms were grown for 24 h (bacteria) or 48 h (fungi) in 35-37 °C in tryptic-soy agar (TSA; BTL Sp. z o.o., Łódź, Poland) or Sabouraud's dextrose agar (SDA; BTL Sp. z o.o., Łódź, Poland) according to nutritional requirements. Microbial suspensions at a density of about 5 × 10^5 CFU/mL were prepared in Mueller-Hinton broth (MHB; BTL Sp. z o.o., Łódź, Poland) or RPMI-1640 medium (Sigma, St. Louis, MO, USA) for bacteria and fungi, respectively. […] Louis, MO, USA). Stock solutions of the lyophilized compounds were freshly prepared in 100% DMSO (POCh, Gliwice, Poland) for the complexes, or in water for injection (Sigma, St. Louis, MO, USA) in the case of antibiotics. […] MIC and MBC/MFC were defined as the lowest concentrations of the compounds inhibiting bacterial/fungal growth or able to kill added microbial inoculum, respectively, and were evaluated as described by […] et al.. Experiments were carried out in duplicate.

[6] = system: Staphylococcus epidermidis ATCC 12228; experiment: MIC and MBC/MFC by broth microdilution; type: cell-based; settings: S. epidermidis ATCC 12228
Protocol: as §2

[7] = system: Staphylococcus aureus ATCC 29213; experiment: MIC and MBC/MFC by broth microdilution; type: cell-based; settings: S. aureus ATCC 29213
Protocol: as §2

[8] = system: Candida albicans ATCC 10231; experiment: MIC and MBC/MFC by broth microdilution; type: cell-based; settings: C. albicans ATCC 10231
Protocol: as §2

[9] = system: Pseudomonas aeruginosa ATCC 25619; experiment: MIC and MBC/MFC by broth microdilution; type: cell-based; settings: P. aeruginosa ATCC 25619
Protocol: as §2

[10] = system: Enterococcus faecalis ATCC 29212; experiment: MIC and MBC/MFC by broth microdilution; type: cell-based; settings: E. faecalis ATCC 29212
Protocol: as §2

S. aureus ATCC 29213 [11] = experiment: Time-kill test; type: cell-based, Staphylococcus aureus; settings: 1 × MIC
Protocol: as §1

Row | Molecule | Cleavage of plasmid DNA, in words [1] | FIC (Oxa) (S. aureus ATCC 29213 [2]) | FIC (Van) (S. aureus ATCC 29213 [2]) | MIC Oxa in Combination (S. aureus ATCC 29213 [2]) | MIC Van in Combination (S. aureus ATCC 29213 [2]) | FIC (Oxa) [3] | FIC (Van) [3] | MIC Oxa in Combination [3] | MIC Van in Combination [3] | Time-kill: bacteriostatic or bactericidal [4] | MBC/MFC [5] | MIC [5] | MBC/MFC [6] | MIC [6] | MBC/MFC [7] | MIC [7] | MBC/MFC [8] | MIC [8] | MBC/MFC [9] | MIC [9] | other results
1 | Cc1cc(C)[n+]2n1C(N)=[S+][Ru-]2[Cl].Cc1ccc(C(C)C)cc1.F[P-](F)(F)(F)(F)F [Compound 3a] | did not affect DNA structure | 1 | 1 | 0.250 µg/mL | 0.50 µg/mL | 0.06 | 0.03 | 0.015 µg/mL | 0.015 µg/mL | bacteriostatic | >1000 µg/mL | >1000 µg/mL | 125 µg/mL | 125 µg/mL | 62.5 µg/mL | 62.5 µg/mL | >1000 µg/mL | 500 µg/mL | >1000 µg/mL | >1000 µg/mL | MBC/MFC [10]: 125 µg/mL; MIC [10]: 125 µg/mL; Time-kill: bacteriostatic or bactericidal (S. aureus ATCC 29213 [11]): bacteriostatic
2 | CCc1cc(CC)[n+]2n1C(N)=[S+][Ru-]2[Cl].Cc1ccc(C(C)C)cc1.F[P-](F)(F)(F)(F)F [Compound 3b] | able to cut plasmid DNA | 0.5 | 0.25 | 0.125 µg/mL | 0.125 µg/mL | 0.06 | 0.03 | 0.015 µg/mL | 0.015 µg/mL | bacteriostatic | >1000 µg/mL | >1000 µg/mL | 62.5 µg/mL | 31.2 µg/mL | 62.5 µg/mL | 62.5 µg/mL | >1000 µg/mL | 1000 µg/mL | >1000 µg/mL | >1000 µg/mL | Correlation with Oxa and Van (synergy), in words (S. aureus ATCC 29213 [2]): synergistic effects; Correlation with Oxa and Van (synergy), in words [3]: synergistic effect in all tested configurations; MBC/MFC [10]: 125 µg/mL; MIC [10]: 62.5 µg/mL; Time-kill: bacteriostatic or bactericidal (S. aureus ATCC 29213 [11]): bacteriostatic
3 | [(η^6-p-cymene)Ru(1-[amino(thioxo)methyl]-5-hydroxy-3-phenyl-1H-pyrazole)PF6 [Compound 3c] | able to cut plasmid DNA | 1 | 1 | 0.250 µg/mL | 0.50 µg/mL | 0.06 | 0.03 | 0.015 µg/mL | 0.015 µg/mL | bactericidal | >1000 µg/mL | >1000 µg/mL | 31.2 µg/mL | 31.2 µg/mL | 31.2 µg/mL | 15.6 µg/mL | >1000 µg/mL | >1000 µg/mL | >1000 µg/mL | >1000 µg/mL | MBC/MFC [10]: 250 µg/mL; MIC [10]: <31.2 µg/mL; Time-kill: bacteriostatic or bactericidal (S. aureus ATCC 29213 [11]): bacteriostatic
